Experiment: Pharmacokinetics in rats after single IV and PO administration (LC-MS/MS)
Type: in vivo, male SD rats
Conditions: SD rats; comparative compounds, PO 10 mg/kg vs IV 1 mg/kg according to Table 3
Protocol: • 1. Objective: This study aimed to characterize the pharmacokinetic properties of selected compounds from the examples of the present invention in SD rats following single intravenous (IV) injection and oral (PO) administration using LC-MS/MS methodology. • 2. Experimental Materials: Test compounds were prepared according to the examples of the present invention; male SD rats were obtained from the Laboratory Animal Department of Shanghai Institute of Planned Parenthood Research (License No. SCXK(Shanghai)2018-0006) or Shanghai Jihui Laboratory Animal Breeding Co., Ltd. (License No. SCXK(Shanghai)2022-0009). • 3. Experimental Methods: Preparation of 0.5% methylcellulose: 5 g of methylcellulose was weighed and dissolved in 1000 mL of purified water. Preparation of 0.5% methylcellulose (pH = 5.03): 5 g of methylcellulose was weighed and dissolved in 1000 mL of purified water, and the pH was adjusted to 5.03 with 100 mM citric acid.
Preparation of oral formulations: The required amount of test compound was weighed and dissolved in 0.5% methylcellulose solution or 0.5% methylcellulose (pH = 5.03) to obtain a suspension or solution at 1 or 3 mg/mL.
Preparation of intravenous injection formulations: The required amount of test compound (EB229, EB300, EB341, EB342) was weighed and dissolved in 0.5 mL dimethyl sulfoxide to prepare a 4 mg/mL solution. To 0.25 mL of this solution, 0.5 mL of polyethylene glycol 15-hydroxystearate (Solutol) and 4.25 mL of normal saline were added to obtain a 0.2 mg/mL solution. For EB834, 6 mg was weighed and dissolved in 0.1 mL dimethyl sulfoxide, followed by addition of 0.2 mL polyethylene glycol 15-hydroxystearate (Solutol) and 1.7 mL normal saline to obtain a 3 mg/mL solution.
Dosing: Male SD rats were fasted overnight prior to oral (PO) administration; fasting was not required for the single intravenous (IV) injection group. Food was provided 4 hours post-dosing.
Sample Collection: Blood was collected from the jugular vein or other suitable veins, with 0.2 mL collected at each time point. Samples were placed in tubes containing dipotassium ethylenediaminetetraacetate and kept on ice prior to centrifugation. Within 1 hour of blood collection, samples were centrifuged at 6800 × g for 6 minutes at 2-8°C and stored at -80°C.

PO F [%]	SMILES
13.50	CCN(C(=O)c1cc(F)ccc1N1CCN(C2CCN(Cc3ccc4c(cc(C#N)n4CC4CNC4)c3C)CC2)c2ncncc21)C(C)C [Comparative Comp. 9]
13.85	CCN(C(=O)c1cc(F)ccc1N1CCN(C2CCN(Cc3ccc4c(cc(C#N)n4C[C@@H]4CCNC4)c3C)CC2)c2ncncc21)C(C)C [Comparative Comp. 8]
49.68	CCN(C(=O)c1cc(F)ccc1N1CCN(C2CCN(Cc3ccc4c(cc(C#N)n4CC4COC4)c3C)CC2)c2ncncc21)C(C)C [Comparative Comp. 10]
3.7	CCN(C(=O)c1cc(F)ccc1N1CCN(C2CCN(Cc3ccc4[nH]c(C#N)cc4c3C)CC2)c2ncncc21)C(C)C [Comparative Comp. 7]

Same assay, conditions: male, rat, plasma; SD rats, IV; comparative compounds, dose 1 mg/kg according to Table 3; read-out: IV AUC(0-t)

AUC(0-t) [ng·h/mL]	SMILES
169	CCN(C(=O)c1cc(F)ccc1N1CCN(C2CCN(Cc3ccc4c(cc(C#N)n4CC4CNC4)c3C)CC2)c2ncncc21)C(C)C [Comparative Comp. 9]
85.7	CCN(C(=O)c1cc(F)ccc1N1CCN(C2CCN(Cc3ccc4c(cc(C#N)n4C[C@@H]4CCNC4)c3C)CC2)c2ncncc21)C(C)C [Comparative Comp. 8]
16.9	CCN(C(=O)c1cc(F)ccc1N1CCN(C2CCN(Cc3ccc4c(cc(C#N)n4CC4COC4)c3C)CC2)c2ncncc21)C(C)C [Comparative Comp. 10]
264	CCN(C(=O)c1cc(F)ccc1N1CCN(C2CCN(Cc3ccc4[nH]c(C#N)cc4c3C)CC2)c2ncncc21)C(C)C [Comparative Comp. 7]

Same assay, conditions: male, rat, plasma; SD rats, IV; comparative compounds, dose 1 mg/kg according to Table 3; read-out: IV CL

clearance [mL/min/kg]	SMILES
92.4	CCN(C(=O)c1cc(F)ccc1N1CCN(C2CCN(Cc3ccc4c(cc(C#N)n4CC4CNC4)c3C)CC2)c2ncncc21)C(C)C [Comparative Comp. 9]
185	CCN(C(=O)c1cc(F)ccc1N1CCN(C2CCN(Cc3ccc4c(cc(C#N)n4C[C@@H]4CCNC4)c3C)CC2)c2ncncc21)C(C)C [Comparative Comp. 8]
947	CCN(C(=O)c1cc(F)ccc1N1CCN(C2CCN(Cc3ccc4c(cc(C#N)n4CC4COC4)c3C)CC2)c2ncncc21)C(C)C [Comparative Comp. 10]
62.1	CCN(C(=O)c1cc(F)ccc1N1CCN(C2CCN(Cc3ccc4[nH]c(C#N)cc4c3C)CC2)c2ncncc21)C(C)C [Comparative Comp. 7]

Same assay, conditions: male, rat, plasma; SD rats, IV; comparative compounds, dose 1 mg/kg according to Table 3; read-out: IV Cmax

Cmax [ng/mL]	SMILES
376	CCN(C(=O)c1cc(F)ccc1N1CCN(C2CCN(Cc3ccc4c(cc(C#N)n4CC4CNC4)c3C)CC2)c2ncncc21)C(C)C [Comparative Comp. 9]
271	CCN(C(=O)c1cc(F)ccc1N1CCN(C2CCN(Cc3ccc4c(cc(C#N)n4C[C@@H]4CCNC4)c3C)CC2)c2ncncc21)C(C)C [Comparative Comp. 8]
16.2	CCN(C(=O)c1cc(F)ccc1N1CCN(C2CCN(Cc3ccc4c(cc(C#N)n4CC4COC4)c3C)CC2)c2ncncc21)C(C)C [Comparative Comp. 10]
152	CCN(C(=O)c1cc(F)ccc1N1CCN(C2CCN(Cc3ccc4[nH]c(C#N)cc4c3C)CC2)c2ncncc21)C(C)C [Comparative Comp. 7]

Same assay, conditions: male, rat, plasma; SD rats, IV; comparative compounds, dose 1 mg/kg according to Table 3; read-out: IV Vss

Vd [L/kg]	SMILES
30.6	CCN(C(=O)c1cc(F)ccc1N1CCN(C2CCN(Cc3ccc4c(cc(C#N)n4CC4CNC4)c3C)CC2)c2ncncc21)C(C)C [Comparative Comp. 9]
9.61	CCN(C(=O)c1cc(F)ccc1N1CCN(C2CCN(Cc3ccc4c(cc(C#N)n4C[C@@H]4CCNC4)c3C)CC2)c2ncncc21)C(C)C [Comparative Comp. 8]
59.4	CCN(C(=O)c1cc(F)ccc1N1CCN(C2CCN(Cc3ccc4c(cc(C#N)n4CC4COC4)c3C)CC2)c2ncncc21)C(C)C [Comparative Comp. 10]
6.62	CCN(C(=O)c1cc(F)ccc1N1CCN(C2CCN(Cc3ccc4[nH]c(C#N)cc4c3C)CC2)c2ncncc21)C(C)C [Comparative Comp. 7]

Same assay, conditions: male, rat, plasma; SD rats, IV; comparative compounds, dose 1 mg/kg according to Table 3; read-out: IV t1/2 (converted)

half-life [h]	SMILES
5.98	CCN(C(=O)c1cc(F)ccc1N1CCN(C2CCN(Cc3ccc4c(cc(C#N)n4CC4CNC4)c3C)CC2)c2ncncc21)C(C)C [Comparative Comp. 9]
2.06	CCN(C(=O)c1cc(F)ccc1N1CCN(C2CCN(Cc3ccc4c(cc(C#N)n4C[C@@H]4CCNC4)c3C)CC2)c2ncncc21)C(C)C [Comparative Comp. 8]
0.82	CCN(C(=O)c1cc(F)ccc1N1CCN(C2CCN(Cc3ccc4c(cc(C#N)n4CC4COC4)c3C)CC2)c2ncncc21)C(C)C [Comparative Comp. 10]
1.55	CCN(C(=O)c1cc(F)ccc1N1CCN(C2CCN(Cc3ccc4[nH]c(C#N)cc4c3C)CC2)c2ncncc21)C(C)C [Comparative Comp. 7]

Same assay, conditions: male, rat, plasma; SD rats, PO; comparative compounds, dose 10 mg/kg in 0.5% MC according to Table 3; read-out: PO AUC(0-t)

AUC(0-t) [ng·h/mL]	SMILES
228	CCN(C(=O)c1cc(F)ccc1N1CCN(C2CCN(Cc3ccc4c(cc(C#N)n4CC4CNC4)c3C)CC2)c2ncncc21)C(C)C [Comparative Comp. 9]
119	CCN(C(=O)c1cc(F)ccc1N1CCN(C2CCN(Cc3ccc4c(cc(C#N)n4C[C@@H]4CCNC4)c3C)CC2)c2ncncc21)C(C)C [Comparative Comp. 8]
83.8	CCN(C(=O)c1cc(F)ccc1N1CCN(C2CCN(Cc3ccc4c(cc(C#N)n4CC4COC4)c3C)CC2)c2ncncc21)C(C)C [Comparative Comp. 10]
119	CCN(C(=O)c1cc(F)ccc1N1CCN(C2CCN(Cc3ccc4[nH]c(C#N)cc4c3C)CC2)c2ncncc21)C(C)C [Comparative Comp. 7]

Same assay, conditions: male, rat, plasma; SD rats, PO; comparative compounds, dose 10 mg/kg in 0.5% MC according to Table 3; read-out: PO Cmax

Cmax [ng/mL]	SMILES
101	CCN(C(=O)c1cc(F)ccc1N1CCN(C2CCN(Cc3ccc4c(cc(C#N)n4CC4CNC4)c3C)CC2)c2ncncc21)C(C)C [Comparative Comp. 9]
41.9	CCN(C(=O)c1cc(F)ccc1N1CCN(C2CCN(Cc3ccc4c(cc(C#N)n4C[C@@H]4CCNC4)c3C)CC2)c2ncncc21)C(C)C [Comparative Comp. 8]
33.3	CCN(C(=O)c1cc(F)ccc1N1CCN(C2CCN(Cc3ccc4c(cc(C#N)n4CC4COC4)c3C)CC2)c2ncncc21)C(C)C [Comparative Comp. 10]
27	CCN(C(=O)c1cc(F)ccc1N1CCN(C2CCN(Cc3ccc4[nH]c(C#N)cc4c3C)CC2)c2ncncc21)C(C)C [Comparative Comp. 7]

Same assay, conditions: male, rat, plasma; SD rats, PO; comparative compounds, dose 10 mg/kg in 0.5% MC according to Table 3; read-out: PO t1/2 (converted)

half-life [h]	SMILES
5.12	CCN(C(=O)c1cc(F)ccc1N1CCN(C2CCN(Cc3ccc4c(cc(C#N)n4CC4CNC4)c3C)CC2)c2ncncc21)C(C)C [Comparative Comp. 9]
1.8	CCN(C(=O)c1cc(F)ccc1N1CCN(C2CCN(Cc3ccc4c(cc(C#N)n4C[C@@H]4CCNC4)c3C)CC2)c2ncncc21)C(C)C [Comparative Comp. 8]
1.26	CCN(C(=O)c1cc(F)ccc1N1CCN(C2CCN(Cc3ccc4c(cc(C#N)n4CC4COC4)c3C)CC2)c2ncncc21)C(C)C [Comparative Comp. 10]
2.29	CCN(C(=O)c1cc(F)ccc1N1CCN(C2CCN(Cc3ccc4[nH]c(C#N)cc4c3C)CC2)c2ncncc21)C(C)C [Comparative Comp. 7]

Source: patent publication EP4775580A1, “COMPOUND, PHARMACEUTICAL COMPOSITION COMPRISING SAME, AND USE THEREOF” (Euregen Biopharma Co., Ltd., priority 2023, dated 2025)
